Among the data in ChEMBL document CHEMBL1201862, “PubChem BioAssay data set” (2004) are EC50, IC50 and AC50 values, retold here.

The source made the active and inactive calls.

The target in assay [1] is T1, Sphingosine 1-phosphate receptor 4 (Homo sapiens, UniProt O95977).
T1 sequence (O95977 whole entry): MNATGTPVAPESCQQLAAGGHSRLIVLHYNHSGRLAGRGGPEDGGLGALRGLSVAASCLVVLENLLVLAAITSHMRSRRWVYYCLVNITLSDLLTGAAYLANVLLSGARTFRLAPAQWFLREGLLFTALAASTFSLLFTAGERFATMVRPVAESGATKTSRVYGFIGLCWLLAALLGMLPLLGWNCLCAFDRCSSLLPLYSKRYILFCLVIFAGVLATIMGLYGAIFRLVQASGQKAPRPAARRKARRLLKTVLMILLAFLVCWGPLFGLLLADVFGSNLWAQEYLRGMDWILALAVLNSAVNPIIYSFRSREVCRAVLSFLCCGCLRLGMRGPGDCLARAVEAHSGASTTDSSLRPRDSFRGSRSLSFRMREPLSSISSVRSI
As to the kind of experiment: Fluorescence dose response cell-based high throughput screening assay for agonists of the Sphingosine 1-Phosphate Receptor 4 (S1P4). [Related pubchem assays: 1509 (Primary screen.), 1523 (Confirmation screen in triplicates.)]. Format: functional.

Assay [2] has as its target Sphingosine 1-phosphate receptor 1 (Homo sapiens, UniProt P21453). The experiment in a line: Fluorescence-based counterscreen assay for S1P4 agonists: Cell-based dose response high throughput screening assay to identify agonists of the Sphingosine 1-Phosphate Receptor 1 (S1P1). [Related pubchem assays (depositor defined):AID1509, AID1523, AID1801, AID463107, AID463118, AID463119, AID463122, AID463123, AID463129, AID463225, AID504400, AID504460]. It is filed as functional. (In general: Counterscreens check selectivity or assay interference.)

The target of assay [3] is Phospholipase D2 (Homo sapiens, UniProt O14939). As to the kind of experiment: cellular phospholipase D2 inhibition IC50 – cell-based, dose response (AID 602147).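 Further: cellular assay in HEK293 cells overexpressing GFP-tagged PLD2.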 It is filed as functional.
For assay [4], the target named is G-protein coupled receptor 55 (Homo sapiens, UniProt Q9Y2T6). As to the kind of experiment: blockers of GPR55 signalling, imaged – imaging, image-based, counter-screen for GPR35 antagonist project, SAR follow-up (AID 2397). It is filed as functional.
For assay [5], the target named is T2, G-protein coupled receptor 35 (Homo sapiens, UniProt Q9HC97). The experiment in a line: SAR Analysis for the identification of Selective Antagonists of ERK1/2 Activity in GPR35-Overexpressing U2OS Cells. [Related pubchem assays: 2079, 2058 ]. It is filed as functional, cell-based.
The target in assay [6] is T2, G-protein coupled receptor 35. The experiment in a line: inhibition of zaprinast-stimulated GPR35 beta-arrestin translocation – imaging, U2OS, beta-arrestin-GFP, zaprinast agonist, primary screen (AID 2058).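 Further: antagonist potency meaning inhibition of agonist-induced arrestin redistribution.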 It is filed as functional.
The target of assay [7] is T3, Alkaline phosphatase, tissue-nonspecific isozyme (Homo sapiens, UniProt P05186).
T3 sequence (P05186 whole entry): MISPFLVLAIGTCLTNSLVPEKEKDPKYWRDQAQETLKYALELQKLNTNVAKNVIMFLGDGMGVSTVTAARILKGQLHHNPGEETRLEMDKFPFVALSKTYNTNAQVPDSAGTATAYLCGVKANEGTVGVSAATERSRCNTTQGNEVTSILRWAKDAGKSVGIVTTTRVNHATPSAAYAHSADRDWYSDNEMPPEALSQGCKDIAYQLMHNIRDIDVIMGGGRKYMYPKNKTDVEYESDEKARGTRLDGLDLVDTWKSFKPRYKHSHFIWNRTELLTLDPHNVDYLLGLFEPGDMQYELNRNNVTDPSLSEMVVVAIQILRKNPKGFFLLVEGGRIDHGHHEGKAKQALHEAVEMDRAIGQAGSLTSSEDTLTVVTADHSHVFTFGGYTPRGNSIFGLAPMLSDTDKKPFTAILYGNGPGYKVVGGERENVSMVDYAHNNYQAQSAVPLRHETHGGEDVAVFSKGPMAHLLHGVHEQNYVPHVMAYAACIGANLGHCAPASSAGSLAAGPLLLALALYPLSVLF
The experiment in a line: activation of tissue-nonspecific alkaline phosphatase – biochemical, TNAP isozyme, human IAP uHTS hits, selectivity assay for human IAP activator project, dose response (AID 488886).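 Further: potency of compounds raising TNAP activity as a selectivity check on IAP activators.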 Format: functional.

The target in assay [8] is Intestinal-type alkaline phosphatase (Mus musculus, UniProt P24822). As to the kind of experiment: PubChem AID 488874. Format: functional.
Assay [9] concerns the target T4, Caspase-6 (Homo sapiens, UniProt P55212).
T4 sequence (P55212 whole entry): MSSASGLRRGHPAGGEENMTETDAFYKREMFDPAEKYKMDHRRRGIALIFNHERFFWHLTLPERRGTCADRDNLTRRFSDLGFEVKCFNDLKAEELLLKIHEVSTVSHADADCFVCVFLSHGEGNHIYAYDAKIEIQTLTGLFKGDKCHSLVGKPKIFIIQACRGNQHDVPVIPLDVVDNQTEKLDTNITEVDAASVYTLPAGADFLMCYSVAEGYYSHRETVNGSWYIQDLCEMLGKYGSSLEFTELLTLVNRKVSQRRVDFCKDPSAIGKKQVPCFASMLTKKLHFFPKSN
The experiment in a line: inhibition of CASP6 peptide cleavage – biochemical, VEID-R110 fluorescence, cherry-pick, dose response (AID 720632).

In assay [10] the target is T5, Intestinal-type alkaline phosphatase (Homo sapiens, UniProt P09923). The experiment in a line: human intestinal alkaline phosphatase activators, dose response, biochemical, luminescence, uHTS hits (AID 463120). Format: functional.
Assay [11] has as its target T5, Intestinal-type alkaline phosphatase. The experiment in a line: activation of human intestinal alkaline phosphatase – biochemical, luminescent, uHTS hits, set 2, dose response (AID 488817).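 Further: potency of activators that raise enzyme activity.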 It is filed as functional.
The target in assay [12] is Tyrosine-protein phosphatase non-receptor type 12 (Homo sapiens, UniProt Q05209). The experiment in a line: SAR Selectivity Analysis of small molecule inhibitors of PEST using pCAP in a fluorescence assay. [Related pubchem assays (depositor defined):AID1779, AID1784, AID2135]. Format: functional.
The target in assay [13] is T6, Tyrosine-protein phosphatase non-receptor type 22 (Homo sapiens, UniProt Q9Y2R2). The experiment in a line: SAR LYP1 Fluorescent Assay using OMFP substrate for In Vitro dose response studies - Set 3. [Related pubchem assays (depositor defined):AID1779, AID1784, AID2140, AID2686]. Format: functional.
In assay [14] the target is Dual specificity protein phosphatase 3 (Homo sapiens, UniProt P51452). The experiment in a line: SAR VHR1 Fluorescent Assay for In Vitro dose response studies Set 2. [Related pubchem assays (depositor defined):AID1654, AID1661, AID1878]. It is filed as functional.
For assay [15], the target named is T7, Tyrosine-protein phosphatase non-receptor type 7 (Homo sapiens, UniProt P35236). The experiment in a line: redox-active compounds inhibiting HePTP phosphatase – biochemical, fluorescence, mechanism study (AID 2068). It is filed as functional.
Assay [16] has as its target T7, Tyrosine-protein phosphatase non-receptor type 7. As to the kind of experiment: inhibition of hematopoietic tyrosine phosphatase HePTP – biochemical, set 2, SAR follow-up (AID 449736). It is filed as functional.
Assay [17] concerns the target Dual specificity protein phosphatase 6 (Rattus norvegicus, UniProt Q64346). It is filed as functional.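 Further: confirmatory in vitro dose-response testing of MKP-3 inhibition; recombinant His-tagged MKP-3 made in E. coli BL21 with OMFP substrate.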
Assay [18] deals with T6, Tyrosine-protein phosphatase non-receptor type 22. As to the kind of experiment: inhibition of lymphoid tyrosine phosphatase LYP – biochemical, pCAP fluorogenic substrate, fluorescence, set 3, SAR follow-up (AID 449727). Format: functional.
Assay [19] has as its target Mu-type opioid receptor (Homo sapiens, UniProt P35372). The experiment in a line: HTS Image-Based Screen for Agonists of the MOR Receptor. [Related pubchem assays (depositor defined):AID1777, AID1785, AID1786, AID2133]. It is filed as functional.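 Further: imaging of beta-arrestin GFP recruitment into spots after receptor activation.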
Assay [20] concerns the target T8, Kappa-type opioid receptor (Homo sapiens, UniProt P41145). Format: functional.
Assay [21] has as its target T9, Delta-type opioid receptor (Homo sapiens, UniProt P41143). As to the kind of experiment: HTS Image-Based Screen for Antagonists of the DOR Receptor. [Related pubchem assays (depositor defined):AID1777, AID1785, AID1786, AID2133]. It is filed as functional.
Assay [22] has as its target T9, Delta-type opioid receptor. As to the kind of experiment: HTS Image-Based Screen for Agonists of the DOR Receptor. [Related pubchem assays (depositor defined):AID1777, AID1786, AID2133]. It is filed as functional.
Assay [23] has as its target T10, Latent membrane protein 1 (Human herpesvirus 4 (strain B95-8), UniProt P03230).
T10 sequence (P03230 whole entry): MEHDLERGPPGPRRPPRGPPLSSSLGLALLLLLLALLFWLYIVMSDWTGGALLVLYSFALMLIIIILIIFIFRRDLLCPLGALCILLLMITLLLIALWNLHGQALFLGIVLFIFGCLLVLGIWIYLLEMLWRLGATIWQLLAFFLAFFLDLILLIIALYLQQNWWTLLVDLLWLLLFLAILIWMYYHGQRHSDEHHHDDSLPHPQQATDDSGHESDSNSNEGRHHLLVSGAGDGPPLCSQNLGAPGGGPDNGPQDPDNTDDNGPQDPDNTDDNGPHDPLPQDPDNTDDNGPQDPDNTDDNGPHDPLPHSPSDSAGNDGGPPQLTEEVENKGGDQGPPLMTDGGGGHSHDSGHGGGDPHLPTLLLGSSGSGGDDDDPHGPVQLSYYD
As to the kind of experiment: LMP1 TES1 pathway selectivity over dsRED control – imaging, HEK293T, dual-color eGFP/dsRED, cherry-picks, selectivity assay for LMP1 NF-kB inhibitor project, dose response (AID 588398). Format: functional, cell-based.

The target in assay [24] is T8, Kappa-type opioid receptor. Format: functional. This is another data set of the same source.
Assay [25] has as its target Beta-galactosidase (Escherichia coli, UniProt Q8VNN2). It is filed as functional.
The target in assay [26] is Lysine-specific demethylase 4A (Homo sapiens, UniProt O75164). The experiment in a line: inhibition of JMJD2A H3K9me3 demethylation – biochemical, DELFIA europium, cherry-picked samples, selectivity assay for GASC-1 inhibitor project, dose response (AID 488840).
Chain of Lysine-specific demethylase 4A (O75164 whole entry): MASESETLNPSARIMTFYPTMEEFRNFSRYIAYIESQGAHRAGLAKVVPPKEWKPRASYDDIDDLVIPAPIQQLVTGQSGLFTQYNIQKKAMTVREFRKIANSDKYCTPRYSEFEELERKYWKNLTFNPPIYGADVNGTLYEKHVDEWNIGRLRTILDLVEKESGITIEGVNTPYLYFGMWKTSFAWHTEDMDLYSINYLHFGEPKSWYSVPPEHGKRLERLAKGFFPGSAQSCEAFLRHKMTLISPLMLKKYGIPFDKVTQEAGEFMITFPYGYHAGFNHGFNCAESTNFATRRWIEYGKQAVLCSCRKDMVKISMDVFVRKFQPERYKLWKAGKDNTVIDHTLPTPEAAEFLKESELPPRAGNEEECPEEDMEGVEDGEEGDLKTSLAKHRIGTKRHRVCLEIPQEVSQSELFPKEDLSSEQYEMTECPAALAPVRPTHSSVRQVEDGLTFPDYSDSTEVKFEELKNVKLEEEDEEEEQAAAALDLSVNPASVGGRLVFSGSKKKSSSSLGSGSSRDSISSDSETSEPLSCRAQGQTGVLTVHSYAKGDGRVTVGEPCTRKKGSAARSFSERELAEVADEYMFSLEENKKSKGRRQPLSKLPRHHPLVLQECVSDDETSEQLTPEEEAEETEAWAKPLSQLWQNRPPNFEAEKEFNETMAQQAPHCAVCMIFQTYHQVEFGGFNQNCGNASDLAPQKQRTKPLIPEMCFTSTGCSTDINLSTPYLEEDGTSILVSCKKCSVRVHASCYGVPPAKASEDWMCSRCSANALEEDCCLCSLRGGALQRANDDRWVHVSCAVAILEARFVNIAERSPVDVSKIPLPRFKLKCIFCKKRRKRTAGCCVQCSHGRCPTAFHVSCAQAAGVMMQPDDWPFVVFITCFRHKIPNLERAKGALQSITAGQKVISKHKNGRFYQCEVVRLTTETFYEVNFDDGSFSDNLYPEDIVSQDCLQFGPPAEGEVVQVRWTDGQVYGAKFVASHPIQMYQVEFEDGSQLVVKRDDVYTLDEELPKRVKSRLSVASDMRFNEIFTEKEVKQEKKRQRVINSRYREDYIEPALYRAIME

T7 sequence (P35236 whole entry): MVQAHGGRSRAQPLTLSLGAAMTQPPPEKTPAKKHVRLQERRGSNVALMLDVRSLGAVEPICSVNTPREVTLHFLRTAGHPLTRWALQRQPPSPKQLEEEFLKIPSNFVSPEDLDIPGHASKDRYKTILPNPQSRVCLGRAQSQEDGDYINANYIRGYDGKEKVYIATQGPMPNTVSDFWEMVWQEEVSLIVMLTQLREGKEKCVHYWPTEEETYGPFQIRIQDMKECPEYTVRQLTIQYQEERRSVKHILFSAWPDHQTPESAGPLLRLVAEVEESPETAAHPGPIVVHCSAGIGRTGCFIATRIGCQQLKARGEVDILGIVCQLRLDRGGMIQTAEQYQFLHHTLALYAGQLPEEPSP
T9 sequence (P41143 whole entry): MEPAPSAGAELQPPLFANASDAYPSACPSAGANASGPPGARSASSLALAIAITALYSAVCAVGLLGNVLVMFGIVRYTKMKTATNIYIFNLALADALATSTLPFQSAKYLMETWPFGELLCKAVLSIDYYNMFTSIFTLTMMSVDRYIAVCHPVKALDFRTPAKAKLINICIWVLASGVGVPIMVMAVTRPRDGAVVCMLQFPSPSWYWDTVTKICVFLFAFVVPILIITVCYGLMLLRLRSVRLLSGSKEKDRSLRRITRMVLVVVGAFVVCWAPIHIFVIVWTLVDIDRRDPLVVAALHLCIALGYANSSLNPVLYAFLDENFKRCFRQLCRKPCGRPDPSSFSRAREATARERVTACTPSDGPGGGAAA
T6 sequence (Q9Y2R2 whole entry): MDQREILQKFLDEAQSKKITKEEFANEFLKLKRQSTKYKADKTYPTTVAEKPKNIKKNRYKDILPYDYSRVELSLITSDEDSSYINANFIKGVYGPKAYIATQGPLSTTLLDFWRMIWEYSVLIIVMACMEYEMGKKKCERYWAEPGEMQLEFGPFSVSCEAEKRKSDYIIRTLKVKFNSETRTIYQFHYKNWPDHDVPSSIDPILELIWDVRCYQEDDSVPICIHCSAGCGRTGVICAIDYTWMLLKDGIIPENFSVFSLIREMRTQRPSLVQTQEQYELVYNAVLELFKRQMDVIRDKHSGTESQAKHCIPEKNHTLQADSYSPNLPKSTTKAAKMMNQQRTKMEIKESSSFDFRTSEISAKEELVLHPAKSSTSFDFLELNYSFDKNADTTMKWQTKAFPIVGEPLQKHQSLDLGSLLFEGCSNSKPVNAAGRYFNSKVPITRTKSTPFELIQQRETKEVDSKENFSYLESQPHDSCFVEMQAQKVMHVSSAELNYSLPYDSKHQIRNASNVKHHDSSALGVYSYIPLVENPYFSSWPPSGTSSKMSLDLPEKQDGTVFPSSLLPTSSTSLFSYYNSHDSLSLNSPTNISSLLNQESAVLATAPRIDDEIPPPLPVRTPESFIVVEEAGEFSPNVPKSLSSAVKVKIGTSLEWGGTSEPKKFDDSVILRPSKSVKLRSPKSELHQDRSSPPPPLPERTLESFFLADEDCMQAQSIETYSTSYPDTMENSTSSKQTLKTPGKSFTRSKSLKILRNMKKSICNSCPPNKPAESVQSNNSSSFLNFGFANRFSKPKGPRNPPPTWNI
T5 sequence (P09923 whole entry): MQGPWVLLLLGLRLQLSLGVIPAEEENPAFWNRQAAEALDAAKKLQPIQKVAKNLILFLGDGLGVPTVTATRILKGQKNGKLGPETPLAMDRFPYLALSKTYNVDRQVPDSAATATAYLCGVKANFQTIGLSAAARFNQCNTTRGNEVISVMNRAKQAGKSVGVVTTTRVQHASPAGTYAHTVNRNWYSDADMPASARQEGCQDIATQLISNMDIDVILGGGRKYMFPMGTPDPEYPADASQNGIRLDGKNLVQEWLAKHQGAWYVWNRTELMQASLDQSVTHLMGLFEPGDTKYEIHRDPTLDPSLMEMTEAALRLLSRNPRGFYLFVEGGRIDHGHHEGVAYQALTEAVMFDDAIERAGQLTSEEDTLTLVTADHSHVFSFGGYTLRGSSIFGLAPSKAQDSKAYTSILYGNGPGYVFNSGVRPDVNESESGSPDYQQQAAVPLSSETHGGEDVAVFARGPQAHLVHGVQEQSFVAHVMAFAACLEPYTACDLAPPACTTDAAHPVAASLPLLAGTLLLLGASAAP
T8 sequence (P41145 whole entry): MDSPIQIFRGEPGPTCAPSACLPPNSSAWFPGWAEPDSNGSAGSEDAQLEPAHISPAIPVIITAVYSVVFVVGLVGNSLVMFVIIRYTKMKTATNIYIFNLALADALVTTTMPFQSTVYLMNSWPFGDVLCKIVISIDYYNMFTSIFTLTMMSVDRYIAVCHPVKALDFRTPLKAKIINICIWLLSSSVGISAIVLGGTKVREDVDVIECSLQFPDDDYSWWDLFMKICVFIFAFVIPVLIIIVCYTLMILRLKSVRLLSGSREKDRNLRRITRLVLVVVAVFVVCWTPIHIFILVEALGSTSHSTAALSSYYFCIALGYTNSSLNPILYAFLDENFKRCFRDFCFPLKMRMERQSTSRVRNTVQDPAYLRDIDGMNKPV
T2 sequence (Q9HC97 whole entry): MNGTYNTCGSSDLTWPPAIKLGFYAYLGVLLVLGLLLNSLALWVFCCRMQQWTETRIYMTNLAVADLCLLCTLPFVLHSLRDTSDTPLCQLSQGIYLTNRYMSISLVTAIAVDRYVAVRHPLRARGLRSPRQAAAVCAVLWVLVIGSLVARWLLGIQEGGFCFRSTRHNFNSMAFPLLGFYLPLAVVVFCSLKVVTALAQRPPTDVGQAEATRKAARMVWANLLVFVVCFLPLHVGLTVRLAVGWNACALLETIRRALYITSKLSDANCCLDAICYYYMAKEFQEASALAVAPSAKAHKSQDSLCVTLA
Chain of Intestinal-type alkaline phosphatase (Mus musculus, UniProt P24822) (P24822 whole entry): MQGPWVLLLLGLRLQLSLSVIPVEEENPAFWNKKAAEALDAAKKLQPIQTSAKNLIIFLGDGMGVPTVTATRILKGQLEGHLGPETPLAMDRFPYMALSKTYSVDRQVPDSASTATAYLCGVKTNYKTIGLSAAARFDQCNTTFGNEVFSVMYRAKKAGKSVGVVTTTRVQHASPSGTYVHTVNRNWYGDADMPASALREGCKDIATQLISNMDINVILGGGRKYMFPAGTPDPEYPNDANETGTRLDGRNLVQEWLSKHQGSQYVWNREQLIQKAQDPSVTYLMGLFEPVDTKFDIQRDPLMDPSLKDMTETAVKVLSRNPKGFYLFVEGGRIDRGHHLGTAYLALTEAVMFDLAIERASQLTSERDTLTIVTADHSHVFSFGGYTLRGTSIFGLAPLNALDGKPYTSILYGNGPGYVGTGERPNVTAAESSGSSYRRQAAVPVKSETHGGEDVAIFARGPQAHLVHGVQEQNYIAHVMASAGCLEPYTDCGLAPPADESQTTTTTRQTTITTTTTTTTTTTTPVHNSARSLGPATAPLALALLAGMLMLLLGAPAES
Chain of Sphingosine 1-phosphate receptor 1 (P21453 whole entry): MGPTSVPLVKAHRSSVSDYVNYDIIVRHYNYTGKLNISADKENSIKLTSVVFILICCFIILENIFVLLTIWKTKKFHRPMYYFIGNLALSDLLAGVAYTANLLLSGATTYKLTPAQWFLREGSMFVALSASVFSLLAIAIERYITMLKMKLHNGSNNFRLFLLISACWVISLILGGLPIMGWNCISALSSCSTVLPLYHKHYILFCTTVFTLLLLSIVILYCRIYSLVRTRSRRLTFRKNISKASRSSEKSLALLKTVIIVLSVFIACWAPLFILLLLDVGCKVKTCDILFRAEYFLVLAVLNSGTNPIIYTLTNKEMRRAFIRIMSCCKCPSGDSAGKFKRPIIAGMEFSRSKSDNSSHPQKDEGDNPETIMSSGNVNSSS
Chain of Dual specificity protein phosphatase 3 (P51452 whole entry): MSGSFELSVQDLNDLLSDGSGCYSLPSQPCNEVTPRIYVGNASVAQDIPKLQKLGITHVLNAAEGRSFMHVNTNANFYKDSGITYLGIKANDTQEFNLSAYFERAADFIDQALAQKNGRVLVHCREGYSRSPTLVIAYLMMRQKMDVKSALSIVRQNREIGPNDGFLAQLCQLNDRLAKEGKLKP

What is called EC50 is the concentration needed to bring the measured effect to its halfway point. On to `CCN(c1ccccc1)S(=O)(=O)c1cc([N+](=O)[O-])ccc1N`, for which the EC50 was 9.34 µM (active) in assay [1] and > 49.8 µM (inactive) in assay [2].

As usually defined, the IC50 is the concentration that gives 50% inhibition. For the compound `Cc1cccc(C(=O)N[C@@H](C)CN2CCC3(CC2)C(=O)NCN3c2ccccc2)c1`, in [3], the IC50 was 20 µM (active).

As to `CC(C)c1ccc(NC(=O)CSc2nc3ccsc3c(=O)n2Cc2ccc(C(=O)O)cc2)cc1`, the IC50 was 11.7 µM (inactive) in assay [4], 5.68 µM (active) in assay [5] and 0.561 µM (active) in [6].

For orientation: AC50 means the concentration at which the activity in the assay is half-maximal. Take `Cc1cccc(OCC(=O)NNC(=O)c2ccc3[nH]cnc3c2)c1`: the EC50 is 17.7 µM (active) in assay [7], 9.75 µM (active) in [10] and 13.5 µM (active) in assay [11]. The IC50 in assay [8] is > 100 µM (inactive). The AC50 in assay [9] was 44 µM (active).

For the compound `CCOC(=O)COc1c(Cl)cc(/C=C2/S/C(=N/c3ccc(F)cc3)NC2=O)cc1OCC`, the IC50 in [12] was 9.35 µM (active); in assay [13] it was 74.8 µM (active); in assay [14], > 100 µM (inactive); in assay [15], 10.5 µM (active); in [16], 1.4 µM (active); in [17], 66.4 µM (active). Besides, in assay [18], the IC50 is 54.2 µM (active).

Take `O=c1[nH]c(Nc2nc3ccccc3o2)nc2c1CCCC2`: the EC50 in assay [19] is > 32 µM (inactive); in [22] it was > 32 µM (inactive); in [25], > 31.5 µM (inactive). The figures for the IC50 in assay [20], in assay [21] and in [24] were 5.27 µM (active), > 32 µM (inactive) and above 32 µM, respectively. For the same compound, in assay [23], the AC50 was 16.8 µM (active).

As for `CCOC(=O)CCCCCC(=O)Nc1ccc2c(c1)CC(=O)N([C@@H](C)CO)C[C@H](C)[C@@H](CN(C)C(=O)Nc1ccc3c(c1)OCO3)O2`, the AC50 in assay [26] was > 60 µM (inactive).
